Measurements taken from BindingDB's records for patent USRE46792 (Otsuka Pharmaceutical, 2018).

Biological target: cAMP-specific 3',5'-cyclic phosphodiesterase 4D (Homo sapiens, UniProt Q08499)
Assay: Inhibitory Activity Assay
Procedure: Necessary amounts of test compounds were weighed, and 100% dimethylsulfoxide (DMSO) was added thereto to adjust the concentration to 10 mM. The solutions were stored in a freezer as stock solutions of each test compound. After being thawed when required, the solutions were diluted 20-fold with 100% DMSO to give a 500 μM concentration. Further, 10-fold serial dilutions were made with 100% DMSO to prepare test compounds of different concentrations. 2 μl of solutions containing one of each of the test compound were separately added into 1.2 ml tubes in which 23 μl of 20 mM Tris-HCl (pH 7.4) had been placed beforehand. 25 μl of a PDE4D enzyme solution diluted at an optimal ratio determined in (3) above were added on ice to each of the tubes, and 50 μl of a substrate solution containing 2 μM[3H] cAMP prepared by dilution with a 20 mM Tris-HCl (pH 7.4) containing 10 mM MgCl2 was added thereto. The final DMSO concentration in the reaction liquid was 2%. After mixing, the mixture was incubated for 10 minutes at 30° C. At the completion of the incubation, the tubes were placed in a bath containing boiling water for 3 minutes, and the reaction was stopped. After cooling the tubes in ice, 25 μl solution of 0.2 mg/ml snake venom was added thereto, and after mixing the mixture was incubated for 10 minutes at 30° C. […] 3H radioactivity (cpm) was measured using a TopCount.

Sequence of cAMP-specific 3',5'-cyclic phosphodiesterase 4D (Q08499 whole entry): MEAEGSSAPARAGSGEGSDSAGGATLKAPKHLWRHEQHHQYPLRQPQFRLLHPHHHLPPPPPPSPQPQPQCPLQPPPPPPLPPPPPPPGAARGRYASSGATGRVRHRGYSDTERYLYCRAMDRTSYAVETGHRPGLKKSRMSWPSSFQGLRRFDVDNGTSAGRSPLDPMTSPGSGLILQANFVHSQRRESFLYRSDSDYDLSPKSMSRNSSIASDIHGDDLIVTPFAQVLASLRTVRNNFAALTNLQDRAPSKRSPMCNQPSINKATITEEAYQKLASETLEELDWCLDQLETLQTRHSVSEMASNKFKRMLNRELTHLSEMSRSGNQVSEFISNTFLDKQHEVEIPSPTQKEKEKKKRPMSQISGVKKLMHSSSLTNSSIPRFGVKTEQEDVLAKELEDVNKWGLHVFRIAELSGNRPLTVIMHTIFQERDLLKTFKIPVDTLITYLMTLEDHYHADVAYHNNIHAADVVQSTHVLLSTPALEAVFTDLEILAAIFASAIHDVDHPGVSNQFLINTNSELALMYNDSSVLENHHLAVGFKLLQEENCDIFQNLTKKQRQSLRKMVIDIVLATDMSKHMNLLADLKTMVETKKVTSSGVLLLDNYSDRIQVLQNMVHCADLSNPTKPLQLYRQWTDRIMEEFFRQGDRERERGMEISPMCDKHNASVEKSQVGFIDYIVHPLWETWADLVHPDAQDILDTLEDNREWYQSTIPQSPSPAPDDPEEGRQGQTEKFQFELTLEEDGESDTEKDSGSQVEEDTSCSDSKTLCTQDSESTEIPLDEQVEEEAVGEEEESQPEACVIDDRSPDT

Work on COc1ccc(-c2nc(CCC(=O)c3ncccc3OC)co2)cc1OCC1CC1 [USRE46792, 126] yielded an IC50 of under 50 nM.
